Drawing on patent publication US20250313572A1, “MACROCYCLIC MCL-1 INHIBITORS AND METHODS OF USE” (AbbVie Inc., priority 2017, published 2025), this text covers IC50 and Ki for eleven molecules.

Like-named read-outs stand apart in the source and are kept apart here. A value given as a limit tells only on which side of the number the result lay.

For experiment [1], the system named is NCI-H929 human multiple myeloma tumor cell line. Nature of the experiment: NCI-H929 cell viability assay (CellTiter-Glo, 24 hours). The format is cell-based. (In general: ATP-based viability assays read luminescence as a measure of living cells.)
For experiment [2], the system named is AMO-1 human multiple myeloma tumor cell line. Kind of experiment: AMO-1 cell viability assay (CellTiter-Glo, 24 hours). The format is cell-based.
Method: Each concentration was tested in duplicate at least 3 independent times. A luminescent signal proportional to the number of viable cells following 24 hours of compound treatment was determined using the CellTiter-Glo® Luminescent Cell Viability Assay according to the manufacturer's recommendations (Promega Corp., Madison, WI). The plates were read in a Perkin Elmer Envision using a Luminescence protocol. To generate dose response curves the data is normalized to percent viability by setting the averages of the staurosporine (10 μM) and DMSO only control wells to 0% and 100% viability respectively.
Another experiment addresses GST-MCL-1 (Homo sapiens, UniProt Q07820). Nature of the experiment: TR-FRET MCL-1 binding assay (competition with probe F-Bak). In a few lines: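 Test compounds, 11 three-fold dilutions from 25 μM final, incubated 2 hours at room temperature with GST-MCL-1, F-Bak probe and Tb-anti-GST antibody. TR-FRET read at 340/35 nm excitation with 520/525 and 495/510 nm emission. Run without human serum and with 10% HS.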
(TR-FRET usually uses a lanthanide donor and a delayed reading to cut background.)

Where [3] appears, read: Homo sapiens, NCI-H929, 24 h, read-out: H929 Viability IC50 (μM, 10% FBS), 10% FBS, 24 hours of compound treatment.
Where [4] appears, read: Homo sapiens, AMO1, 24 h, read-out: AMO-1 Viability IC50 (μM, 10% FBS), 10% FBS, 24 hours of compound treatment.
The mark [5] stands for this setting: MCL-1 Binding Ki (nM, 10% HS), in the presence of 10% HS (human serum).
Where [6] appears, read: without HS, read-out: MCL-1 Binding Ki.

GST-MCL-1, sequence (Q07820 whole entry): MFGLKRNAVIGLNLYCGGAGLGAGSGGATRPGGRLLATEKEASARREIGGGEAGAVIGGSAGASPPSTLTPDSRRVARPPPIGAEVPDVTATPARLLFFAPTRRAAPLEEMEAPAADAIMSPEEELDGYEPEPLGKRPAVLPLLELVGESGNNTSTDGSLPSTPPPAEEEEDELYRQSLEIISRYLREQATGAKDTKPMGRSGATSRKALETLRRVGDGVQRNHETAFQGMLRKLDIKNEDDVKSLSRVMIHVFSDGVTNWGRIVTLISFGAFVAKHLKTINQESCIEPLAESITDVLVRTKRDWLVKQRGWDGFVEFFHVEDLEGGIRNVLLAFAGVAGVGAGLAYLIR

The IC50 is the concentration that inhibits the measured activity by half. As a reminder, the Ki is the dissociation constant of the complex between target and ligand, obtained from inhibition or displacement. For `COCCOCCOCCOCCOCCOC1(c2nccc(COc3ccc4cc3C[C@H](C(=O)O)Oc3ncnc5sc(-c6ccc(F)cc6)c(c35)-c3c(C)c(Cl)c(c(Cl)c3C)O[C@H](CN3CCN(C)CC3)CO4)n2)CCC1` [Example 63, (7R,16R)-19,23-dichloro-1-(4-fluorophenyl)-20,22-dimethyl-16-[(4-methylpiperazin-1-yl)methyl]-10-[(2-{1-[(2,5,8,11,14-pentaoxahexadecan-16-yl)oxy]cyclobutyl}pyrimidin-4-yl)methoxy]-7,8,15,16-tetrahydro-18,21-etheno-9,13-(metheno)-6,14,17-trioxa-2-thia-3,5-diazacyclononadeca[1,2,3-cd]indene-7-carboxylic Acid], the IC50 in experiment [1] (setting [3]) stood at 0.0032 µM; in experiment [2] (setting [4]), 0.00205 µM. Also, the Ki on GST-MCL-1 (setting [5]) is 0.148 nM; at GST-MCL-1 (setting [6]) it was 0.039 nM.

With `COCCOCCOCCOCC1(F)CC=C(c2nccc(COc3ccc4cc3C[C@H](C(=O)O)Oc3ncnc5sc(-c6ccc(F)cc6)c(c35)-c3c(C)c(Cl)c(c(Cl)c3C)O[C@H](CN3CCN(C)CC3)CO4)n2)CC1` (single isomer, unassigned) [Example 101, (7R,16R)-19,23-dichloro-1-(4-fluorophenyl)-10-({2-[(4S*)-4-fluoro-4-(2,5,8,11-tetraoxadodecan-1-yl)cyclohex-1-en-1-yl]pyrimidin-4-yl}methoxy)-20,22-dimethyl-16-[(4-methylpiperazin-1-yl)methyl]-7,8,15,16-tetrahydro-18,21-etheno-13,9-(metheno)-6,14,17-trioxa-2-thia-3,5-diazacyclononadeca[1,2,3-cd]indene-7-carboxylic Acid], the IC50 was found to be 0.000298 µM in experiment [1] (setting [3]) and 0.000195 µM in experiment [2] (setting [4]). Moreover, the Ki at GST-MCL-1 (setting [5]) was found to be 0.235 nM; at GST-MCL-1 (setting [6]), 0.02 nM.

For `COCCOCCOCC1CN(c2nccc(COc3ccc4cc3C[C@H](C(=O)O)Oc3ncnc5sc(-c6ccc(F)cc6)c(c35)-c3c(C)c(Cl)c(c(Cl)c3C)O[C@H](CN3CCN(C)CC3)CO4)n2)C1` [Example 139, (7R,16R)-19,23-dichloro-1-(4-fluorophenyl)-10-{[2-(3-{[2-(2-methoxyethoxy)ethoxy]methyl}azetidin-1-yl)pyrimidin-4-yl]methoxy}-20,22-dimethyl-16-[(4-methylpiperazin-1-yl)methyl]-7,8,15,16-tetrahydro-18,21-etheno-9,13-(metheno)-6,14,17-trioxa-2-thia-3,5-diazacyclononadeca[1,2,3-cd]indene-7-carboxylic Acid], the IC50 in experiment [1] (setting [3]) worked out at 0.00307 µM; in experiment [2] (setting [4]) it was 0.00231 µM. For the same molecule, the inhibition constant Ki on GST-MCL-1 (setting [5]) worked out at 1.21 nM; on GST-MCL-1 (setting [6]) it was 0.147 nM.

Consider `Cc1c(Cl)c2c(Cl)c(C)c1-c1c(-c3ccc(F)cc3)sc3ncnc(c13)O[C@@H](C(=O)O)Cc1cc(ccc1OCc1ccnc(-c3cccc(CN4CCS(=O)(=O)CC4)c3)n1)OC[C@@H](CN1CCN(C)CC1)O2` [Example 117, (7R,16R)-19,23-dichloro-10-[(2-{3-[(1,1-dioxo-1λ^6-thiomorpholin-4-yl)methyl]phenyl}pyrimidin-4-yl)methoxy]-1-(4-fluorophenyl)-20,22-dimethyl-16-[(4-methylpiperazin-1-yl)methyl]-7,8,15,16-tetrahydro-18,21-etheno-13,9-(metheno)-6,14,17-trioxa-2-thia-3,5-diazacyclononadeca[1,2,3-cd]indene-7-carboxylic Acid], for which the IC50 in experiment [1] (setting [3]) was determined as 0.000364 µM; in experiment [2] (setting [4]), 0.000205 µM. Further, the results for the Ki at GST-MCL-1 (setting [5]) and on GST-MCL-1 (setting [6]) were 0.219 nM and 0.025 nM, respectively.

As for `Cc1c(Cl)c2c(Cl)c(C)c1-c1c(-c3ccc(F)cc3)sc3ncnc(c13)O[C@@H](C(=O)O)Cc1cc(ccc1OCc1ccnc(-c3ccc(OCCN4C[C@H]5COC[C@H]5C4)cc3)n1)OC[C@@H](CN1CCN(C)CC1)O2` [Example 164, (7R,16R)-19,23-dichloro-1-(4-fluorophenyl)-20,22-dimethyl-16-[(4-methylpiperazin-1-yl)methyl]-10-{[2-(4-{2-[(3aR,6aS)-tetrahydro-1H-furo[3,4-c]pyrrol-5 (3H)-yl]ethoxy}phenyl)pyrimidin-4-yl]methoxy}-7,8,15,16-tetrahydro-18,21-etheno-13,9-(metheno)-6,14,17-trioxa-2-thia-3,5-diazacyclononadeca[1,2,3-cd]indene-7-carboxylic Acid], the IC50 in experiment [1] (setting [3]) stood at 0.00147 µM; in experiment [2] (setting [4]), 0.000416 µM. Besides, the values for the Ki at GST-MCL-1 (setting [5]) and on GST-MCL-1 (setting [6]) were 0.453 nM and 0.061 nM, respectively.

With `Cc1c2ccc(c1Cl)O[C@H](CN1CCN(C)CC1)COc1ccc(OCc3ccnc(-c4ccc(OC[C@H](O)CO)cc4)n3)c(c1)C[C@H](C(=O)O)Oc1ncnc3sc(-c4ccc(F)cc4)c-2c13` (atropisomer, axis not shown) [Example 18, (7R,16R,21S)-19-chloro-10-[(2-{4-[(2R)-2,3-dihydroxypropoxy]phenyl}pyrimidin-4-yl)methoxy]-1-(4-fluorophenyl)-20-methyl-16-[(4-methylpiperazin-1-yl)methyl]-7,8,15,16-tetrahydro-18,21-etheno-13,9-(metheno)-6,14,17-trioxa-2-thia-3,5-diazacyclononadeca[1,2,3-cd]indene-7-carboxylic Acid], the results for the IC50 in experiment [1] (setting [3]) and in experiment [2] (setting [4]) were 0.00531 µM and 0.00295 µM, respectively. Further, the Ki on GST-MCL-1 (setting [5]) amounted to 0.269 nM; on GST-MCL-1 (setting [6]), 0.011 nM.

For the molecule `COCCOCCOCCC1CCN(C[C@@H]2COc3ccc(OCc4ccnc(-c5ccccc5OC)n4)c(c3)C[C@H](C(=O)O)Oc3ncnc4sc(-c5ccc(F)cc5)c(c34)-c3ccc(c(Cl)c3C)O2)CC1` (atropisomer, axis not shown) [Example 27, (7R,16R,21R)-19-chloro-1-(4-fluorophenyl)-16-[(4-{2-[2-(2-methoxyethoxy)ethoxy]ethyl}piperidin-1-yl)methyl]-10-{[2-(2-methoxyphenyl)pyrimidin-4-yl]methoxy}-20-methyl-7,8,15,16-tetrahydro-18,21-etheno-13,9-(metheno)-6,14,17-trioxa-2-thia-3,5-diazacyclononadeca[1,2,3-cd]indene-7-carboxylic Acid], the IC50 came out at 0.319 µM in experiment [1] (read-out: H929 Viability IC50 (μM, 10% FBS), 10% FBS, 24 hours of compound treatment) and 0.314 µM in experiment [2] (read-out: AMO-1 Viability IC50 (μM, 10% FBS), 10% FBS, 24 hours of compound treatment). Moreover, the values for the Ki at GST-MCL-1 (setting [5]) and at GST-MCL-1 (setting [6]) were 22 nM and 0.987 nM, respectively.

For `Cc1c2ccc(c1Cl)O[C@H](CN1CCN(C)CC1)COc1ccc(OCc3ccnc(-c4ccccc4OCC(=O)O)n3)c(c1)C[C@H](C(=O)O)Oc1ncnc3sc(-c4ccc(F)cc4)c-2c13` (atropisomer, axis not shown) [Example 24, (7R,16R,21S)-10-({2-[2-(carboxymethoxy)phenyl]pyrimidin-4-yl}methoxy)-19-chloro-1-(4-fluorophenyl)-20-methyl-16-[(4-methylpiperazin-1-yl)methyl]-7,8,15,16-tetrahydro-18,21-etheno-13,9-(metheno)-6,14,17-trioxa-2-thia-3,5-diazacyclononadeca[1,2,3-cd]indene-7-carboxylic Acid], the IC50 worked out at 0.157 µM in experiment [1] (setting [3]) and 0.0385 µM in experiment [2] (setting [4]). For the same molecule, the Ki at GST-MCL-1 (setting [5]) was 0.098 nM; on GST-MCL-1 (setting [6]), 0.015 nM.

In the case of `COCCOCCOCCOCCOCCOCCOCCC(=O)N1CCC[C@@H]1c1nccc(COc2ccc3cc2C[C@H](C(=O)O)Oc2ncnc4sc(-c5ccc(F)cc5)c(c24)-c2ccc(c(Cl)c2C)O[C@H](CN2CCN(C)CC2)CO3)n1` [Example 43, (7R,16R)-19-chloro-1-(4-fluorophenyl)-20-methyl-16-[(4-methylpiperazin-1-yl)methyl]-10-({2-[(2R)-1-(23-oxo-2,5,8,11,14,17,20-heptaoxatricosan-23-yl)pyrrolidin-2-yl]pyrimidin-4-yl}methoxy)-7,8,15,16-tetrahydro-18,21-etheno-13,9-(metheno)-6,14,17-trioxa-2-thia-3,5-diazacyclononadeca[1,2,3-cd]indene-7-carboxylic Acid], the IC50 in experiment [1] (setting [3]) and in experiment [2] (setting [4]) was above 1 µM each time. Moreover, the Ki at GST-MCL-1 (setting [5]) was found to be 39.4 nM; on GST-MCL-1 (setting [6]) it was 41.1 nM.

As for `COCCOCCOCCOCCOCCOC[C@]1(F)CC[C@@H](c2nccc(COc3ccc4cc3C[C@H](C(=O)O)Oc3ncnc5sc(-c6ccc(F)cc6)c(c35)-c3c(C)c(Cl)c(c(Cl)c3C)O[C@H](CN3CCN(C)CC3)CO4)n2)CC1` [Example 113, (7R,16R)-19,23-dichloro-10-({2-[(1s,4s)-4-fluoro-4-(2,5,8,11,14,17-hexaoxaoctadecan-1-yl)cyclohexyl]pyrimidin-4-yl}methoxy)-1-(4-fluorophenyl)-20,22-dimethyl-16-[(4-methylpiperazin-1-yl)methyl]-7,8,15,16-tetrahydro-18,21-etheno-13,9-(metheno)-6,14,17-trioxa-2-thia-3,5-diazacyclononadeca[1,2,3-cd]indene-7-carboxylic Acid], the IC50 worked out at 0.00064 µM in experiment [1] (setting [3]) and 0.00028 µM in experiment [2] (setting [4]). The Ki was found to be 0.065 nM on GST-MCL-1 (setting [5]) and 0.016 nM at GST-MCL-1 (setting [6]).

`COCCOCCN(CCOCCOC)c1nccc(COc2ccc3cc2C[C@H](C(=O)O)Oc2ncnc4sc(-c5ccc(F)cc5)c(c24)-c2c(C)c(Cl)c(c(Cl)c2C)O[C@H](CN2CCN(C)CC2)CO3)n1` [Example 108, (7R,16R)-10-[(2-{bis[2-(2-methoxyethoxy)ethyl]amino}pyrimidin-4-yl)methoxy]-19,23-dichloro-1-(4-fluorophenyl)-20,22-dimethyl-16-[(4-methylpiperazin-1-yl)methyl]-7,8,15,16-tetrahydro-18,21-etheno-13,9-(metheno)-6,14,17-trioxa-2-thia-3,5-diazacyclononadeca[1,2,3-cd]indene-7-carboxylic Acid]: the IC50 was 0.00417 µM in experiment [1] (setting [3]) and 0.00343 µM in experiment [2] (setting [4]). Further, the Ki at GST-MCL-1 (setting [5]) came out at 6.62 nM; at GST-MCL-1 (setting [6]) it was 1.08 nM.
